As usually defined, the Km is the substrate concentration at which the rate is half of its maximum.

The values below come from US8298798B2, “Production of C5-C8 alcohols using evolved enzymes and metabolically engineered microorganisms” (The Regents of the University of California, priority 2008, dated 2012).

The experiment has as its target F381L/V461A KIVD (Lactococcus lactis, UniProt A0A0B8QZ66, form not given/V461A). The experiment can be described thus: coupled enzymatic assay of KIVD decarboxylation activity. The experiment is classed as biochemical. The note with it: substrate of V461A/F381L KIVD, 30° C., pH 6.8. From the text: Protein Expression and Purification. Both gene fragments encoding wild type and F381L/V461A KIVD were amplified from plasmid pZE_LeuABCDKA6 using primers hiskivd_tevfwd and hiskivd_bamrev. After digestion with BamHI, the gene fragments were inserted into expression plasmid pQE9 (Qiagen) to yield pQE_hiskivd_wt and pQE_hiskivd_FL. The ADH6 gene fragment was amplified from yeast genomic DNA using primers hisadh_tevfwd and hisadh_bamrev, digested with BamHI and inserted into pQE9 to generate pQE_hisadh6. Similarly, genes encoding G462D and G462D/S139G LeuA were amplified from plasmid pZE_LeuABCDKA6 using primers hisleua_tevfwd and hisleua_bamrev. After digestion with BamHI, the PCR products were ligated into pQE9 to create pQE_hisleua_GD and pQE_hisleua_GS. […]
Enzymatic Assay of KIVD. […] Inc. Protein concentration was determined by measuring UV absorbance at 280 nm. The decarboxylation activity of KIVD was measured at 30° C. using a coupled enzymatic assay method. […] The reactions were started by adding 2 μl KIVD (final concentration: for KIV, 20 nM wt KIVD, 200 nM F381L/V461A KIVD; for KHV, 50 nM both), and the consumption of NADPH was monitored at 340 nm (extinction coefficient, 6.22 mM^−1 cm^−1). Kinetic parameters (kcat and Km) were determined by fitting initial velocity data to the Michaelis-Menten equation using Origin.

For `CC(C)C(=O)C(=O)O` [2-Ketoisovalerate], the Km amounted to 7.7 mM.

On to `CC[C@H](C)CC(=O)C(=O)O` [(S)-2-keto-4-methylhexanoate], for which the Km stood at 0.22 mM.
